Assay results from EP4800015A1, “AZABICYCLO DERIVATIVE AND PREPARATION METHOD THEREFOR, AND USE” (Zhejiang Hisun Pharmaceutical Co., Ltd., priority 2023, dated 2025).
pIC50: −log10 of the molar value.

Tests used:
recombinant human WRN = molecular target: T1, recombinant human WRN (Homo sapiens, UniProt Q14191); test: Inhibition of WRN enzyme activity (ATPase), ADP-Glo Kinase Assay; type: biochemical; conditions: WRN protein 5 nM, Flap 0.1 nM, ATP 30 µM; read-out: IC50
T1 construct: purchased BPS 101264
T1 sequence (Q14191 whole entry): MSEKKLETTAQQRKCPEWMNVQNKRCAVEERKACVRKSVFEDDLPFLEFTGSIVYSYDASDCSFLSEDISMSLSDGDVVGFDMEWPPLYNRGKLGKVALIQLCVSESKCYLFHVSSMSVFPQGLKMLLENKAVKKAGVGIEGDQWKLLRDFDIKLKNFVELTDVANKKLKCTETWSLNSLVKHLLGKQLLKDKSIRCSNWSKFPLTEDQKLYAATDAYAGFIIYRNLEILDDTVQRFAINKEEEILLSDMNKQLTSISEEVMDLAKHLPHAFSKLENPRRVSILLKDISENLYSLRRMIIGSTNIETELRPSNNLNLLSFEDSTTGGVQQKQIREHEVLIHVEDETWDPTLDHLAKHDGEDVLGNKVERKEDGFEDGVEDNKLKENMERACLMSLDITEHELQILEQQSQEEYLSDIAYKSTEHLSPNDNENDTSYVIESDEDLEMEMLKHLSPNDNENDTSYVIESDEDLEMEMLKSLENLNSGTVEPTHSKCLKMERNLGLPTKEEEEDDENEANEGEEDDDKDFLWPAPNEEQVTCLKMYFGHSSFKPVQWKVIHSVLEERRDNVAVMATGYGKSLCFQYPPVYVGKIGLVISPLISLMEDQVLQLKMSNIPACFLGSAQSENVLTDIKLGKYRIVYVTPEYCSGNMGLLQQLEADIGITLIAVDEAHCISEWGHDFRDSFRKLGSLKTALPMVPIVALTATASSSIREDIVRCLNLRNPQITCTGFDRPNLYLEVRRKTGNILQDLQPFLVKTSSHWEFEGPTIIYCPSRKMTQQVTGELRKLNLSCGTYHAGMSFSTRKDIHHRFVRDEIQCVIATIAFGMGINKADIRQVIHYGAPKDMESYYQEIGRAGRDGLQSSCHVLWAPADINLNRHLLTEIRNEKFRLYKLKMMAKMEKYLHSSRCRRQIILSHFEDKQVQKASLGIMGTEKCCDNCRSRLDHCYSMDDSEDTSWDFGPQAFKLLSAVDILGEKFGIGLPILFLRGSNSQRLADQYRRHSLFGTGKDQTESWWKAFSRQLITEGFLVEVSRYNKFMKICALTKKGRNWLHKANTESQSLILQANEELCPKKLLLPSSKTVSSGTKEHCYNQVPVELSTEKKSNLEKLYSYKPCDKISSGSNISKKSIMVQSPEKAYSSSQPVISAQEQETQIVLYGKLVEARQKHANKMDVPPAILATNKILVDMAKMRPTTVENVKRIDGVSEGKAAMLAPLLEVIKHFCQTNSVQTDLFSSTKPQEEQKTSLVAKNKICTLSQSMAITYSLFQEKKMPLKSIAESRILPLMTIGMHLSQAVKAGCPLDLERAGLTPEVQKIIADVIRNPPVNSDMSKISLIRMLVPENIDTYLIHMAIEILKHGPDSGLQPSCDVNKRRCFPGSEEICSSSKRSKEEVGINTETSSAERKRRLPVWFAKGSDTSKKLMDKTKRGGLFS
Summary of the method: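 Recombinant human WRN (5 nM) was preincubated with compound (1000–0.004 nM) for 15 min at room temperature. Flap26 5'-flap DNA (0.1 nM) and 30 µM ATP were then added for 10 min in Tris pH 7.5, MgCl2, NaCl, BSA, Pluronic buffer. ADP was detected by ADP-Glo luminescence, and IC50 was obtained by nonlinear regression versus a 0.1% DMSO control.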

SW48 cells = test: Inhibition of SW48 cell proliferation (CellTiter-Glo); type: cell-based; conditions: Homo sapiens; SW48 cells (MSI-H), 120 hours
Summary of the method: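 SW48 (MSI-H) cells in L-15 with 10% FBS were seeded at 500 per well, cultured overnight at 37 °C, then exposed to compound at final concentrations of 10000 nM to 1.52 nM for 120 h. Viability was read by CellTiter-Glo luminescence, with inhibition relative to 0.1% DMSO. IC50 from nonlinear regression of log concentration versus inhibition.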

RL95-2 cells = test: Inhibition of RL95-2 cell proliferation (CellTiter-Glo); type: cell-based; conditions: Homo sapiens; RL95-2 cells (MSI-H), 120 hours
Summary of the method: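 RL95-2 (MSI-H) cells, 500/well in DMEM/F12 with 10% FBS, adhered overnight, then treated 120 h at 37 °C, 5% CO2 with compound at final 1.52-10000 nM. Viability by CellTiter-Glo luminescence. Inhibition relative to 0.1% DMSO control; IC50 from nonlinear regression of log concentration versus inhibition.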

[1] = Pharmacokinetic test in mice after intragastric administration; type: in vivo; conditions: male, mouse, plasma, ICR mice, Oral (10 mg/kg); for AUC(0-t): read-out: Area under curve AUC0-t; for half-life: read-out: Half-life T1/2 (converted); for Cmax: read-out: Plasma concentration Cmax
Protocol: ICR mice were used as test animals, the plasma concentrations of the control compound HRO761 and the compounds of the present disclosure at different time points after intragastric administration were determined by LC/MS/MS method, and the pharmacokinetic characteristics of the compounds of the present disclosure in mice were studied.
ICR mice, male, 30.8 to 38.0 g, purchased from Vital River Laboratory Animal Technology Co., Ltd.
An appropriate amount of the test compound was weighed, and an appropriate amount of DMA (N,N-dimethylacetamide), 30% Solutol HS15 (30% polyethylene glycol-15 hydroxystearate), and Saline (saline) were added sequentially, the mixture was ultrasonicated and vortex mixed to prepare a 1 mg/mL dosing formulation. The ratio of DMA:30% Solutol HS15:Saline was 5:5:90 (v/v/v).
After overnight fasting, ICR mice in each test compound injection group (9 mice per group) were administered intragastrically (PO, compound dose was 10 mg/kg, administration volume was 10 mL/kg), and food was given 4 hours after administration.
About 0.1 mL of blood was collected via the orbital cavity before administration and at 0.25 h, 0.5 h, 1 h, 2 h, 4 h, 8 h, 10 h, and 24 h after administration, and whole blood samples were placed in anticoagulant tubes containing EDTA-K2. The samples were placed on ice after collection, and plasma was separated by centrifugation (centrifugation conditions: 1500 g, 10 minutes). The collected plasma was stored at -40 to -20 °C before analysis.
The content of the test compound in mouse plasma after intragastric administration was determined by LC-MS/MS.

[2] = Caco-2 bidirectional permeability and efflux ratio; type: in vitro ADME; conditions: human, Caco-2, 10 µM, 120 minutes
Protocol: (§1) The bidirectional permeability and efflux ratio of the example compounds and control compound were determined in a Caco-2 monolayer cell model.
(§2) Caco-2 cells (cultured at Shanghai Medicilon Inc.) were recovered in the experiment. After the cells were in good condition, they were digested, and the cell density was adjusted (1 × 10^5 cells/cm^2). Caco-2 cells were seeded into Transwell chambers and placed in 24-well plates for cultivation. After continuous cultivation for about 21 days, TEER values were measured one day before the experiment to ensure formation of a confluent cell monolayer for transport experiments (TEER > 200 Ω·cm^2). Test compounds were diluted from 10 mM stock solutions to 10 µM concentration using transport buffer (HBSS containing BSA) (metoprolol and atenolol were set as positive compounds). For efflux determination, 0.6 mL of compound dilution solution was added to the outer well (side B), and 0.4 mL of blank transport buffer was added to the Transwell chamber. For absorption determination, 0.4 mL of transport buffer containing compound was added to the Transwell chamber, and 0.6 mL of blank transport buffer was added to the outer side. After setup, the 24-well plates were cultivated at 37 °C and 5% CO2 with 95% relative humidity for 120 minutes, and permeability of test compounds from A to B direction or B to A direction was measured, respectively, with two duplicate wells set for each direction. Liquid in Transwell chambers and 24-well plates was collected separately, 60 µL each, and 180 µL of acetonitrile (containing internal standard) was added, vortexed for 1 min, then centrifuged at 4 °C, 10000 rpm for 10 min. The supernatant was taken, filtered through a 0.22 µm membrane, and placed in vials for testing. The content of the compounds in each Transwell chamber and 24-well plate was determined by liquid chromatography-tandem mass spectrometry (LC-MS/MS). Table 4 Permeability data of compounds of the present disclosure

[3] = tested on: Caco-2 monolayer cell model; test: Caco-2 bidirectional permeability and efflux ratio; type: in vitro ADME; conditions: Caco-2, conclusion
Protocol: as §1, §2

[4] = Metabolic stability in human liver microsomes; type: in vitro ADME; conditions: human liver microsomes 0.5 mg mL^-1, NADPH 1 mM, 0-60 min; read-out: Liver microsomal stability t1/2 (min) Human
Protocol: (§3) The purpose of this study was to investigate the metabolic stability of the compounds of the present disclosure in human and dog liver microsomes.
(§4) The compounds were co-incubated with human (or dog) liver microsomes, and the reaction was initiated by adding coenzyme NADPH (1 mM). At 0, 5, 15, 30, and 60 minutes, 60 µL of incubation solution was removed, and 180 µL of acetonitrile containing internal standard (clopidogrel) was added to quench the reaction, the mixture was shaken for 10 seconds, centrifuged at 10000 rpm for 10 minutes, and the supernatant was taken for analysis by LC-MS/MS. The in vitro intrinsic clearance was calculated based on the elimination half-life of the test compound in the incubation system. Midazolam was used as an internal reference compound, with two parallel incubations for each. Incubation conditions are summarized in Table 6 below: Table 6 Incubation conditions for the example compounds of the present disclosure
(§5) The ratio of the peak area of analyte to internal standard (Aanalyte/AIS) was obtained from the instrument, and the remaining percentage (%Control) was calculated from the ratio of Aanalyte/AIS in non-zero time point samples to zero time samples. Ln (%Control) was plotted against incubation time and linearly fitted. The test compound clearance constant (k, min^-1) and clearance half-life (T1/2, min) were calculated using the following equations. k = −slope [formula] T1/2 = 0.693/k. [formula]

[5] = Metabolic stability in dog liver microsomes; type: in vitro ADME; conditions: dog liver microsomes 0.5 mg mL^-1, NADPH 1 mM, 0-60 min; read-out: Liver microsomal stability t1/2 (min) Dog
Protocol: as §3, §4, §5

| Compound | pIC50 (recombinant human WRN) | pIC50 (SW48 cells) | pIC50 (RL95-2 cells) | AUC(0-t) [1] [ng·h/mL] | half-life [1] [h] | Cmax [1] [ng/mL] | efflux ratio at 120 min, 10 µM ([2]; read-out: Efflux ratio Papp(B-A)/ Papp(A-B)) | Papp A→B at 120 min, 10 µM ([2]; A to B) [×10⁻⁶ cm/s] | Papp B→A at 120 min, 10 µM ([2]; B to A) [×10⁻⁶ cm/s] | efflux (in words) [3] | permeability (in words) [3] | half-life [4] [min] | half-life [5] [min] |
| --- | --- | --- | --- | --- | --- | --- | --- | --- | --- | --- | --- | --- | --- |
| CCc1c(N2CCN(C(=O)c3ncnc(C)c3O)CC2)c(=O)n2nc(C3=CCCCCC3)nc2n1CC(=O)Nc1ccc(S(F)(F)(F)(F)F)cc1 [Example 27, 2-(2-(cyclohept-1-en-1-yl)-5-ethyl-6-(4-(5-hydroxy-6-methylpyrimidine-4-carbonyl)piperazin-1-yl)-7-oxo-[1,2,4]triazolo[1,5-a]pyrimidin-4(7H)-yl)-N-(4-(pentafluoro-λ^66-sulfaneyl)phenyl)acet amide] | 7.00 to 9.00 | 7.00 to 9.00 | 7.00 to 9.00 | 66600 | 2.27 | 18100 | – | – | – | – | – | – | – |
| CCc1c(N2CCN(C(=O)c3ncnc(C)c3O)CC2)c(=O)n2nc(-c3ccc4ccoc4c3)nc2n1CC(=O)Nc1ccc(C(F)(F)F)cc1Cl [Example 68, 2-(2-(benzofuran-6-yl)-5-ethyl-6-(4-(5-hydroxy-6-methylpyrimidine-4-carbonyl)piperazin-1-yl)-7-oxo-[1,2,4]triazolo[1,5-a]pyrimidin-4(7H)-yl)-N-(2-chloro-4-(trifluoromethyl)phenyl)acetamide] | > 9.00 | – | 7.00 to 9.00 | 98900 | 2.41 | 17300 | 1.1 | 4.64 | 5.09 | no significant efflux | moderate permeability | – | – |
| Cc1ncnc(C(=O)N2CCN(c3c(C)n(CC(=O)Nc4ccc(C(F)(F)F)cc4Cl)c4nc(-c5ccc6c(c5)CCO6)nn4c3=O)CC2)c1O [Example 106, N-(2-chloro-4-(trifluoromethyl)phenyl)-2-(2-(2,3-dihydrobenzofuran-5-yl)-6-(4-(5-hydroxy-6-methylpyrimidine-4-carbonyl)piperazin-1-yl)-5-methyl-7-oxo-[1,2,4]triazolo[1,5-a]pyrimidin-4(7H) -yl)acetamide] | 7.00 to 9.00 | 7.00 to 9.00 | 7.00 to 9.00 | 330000 | 4.85 | 45000 | – | – | – | – | – | – | – |
| CCc1c(N2CCN(C(=O)c3ncnc(C)c3O)CC2)c(=O)n2nc(-c3ccc4c(c3)CCO4)nc2n1CC(=O)Nc1ccc(C(F)(F)F)cc1Cl [Example 76, N-(2-chloro-4-(trifluoromethyl)phenyl)-2-(2-(2,3-dihydrobenzofuran-5-yl)-5-ethyl-6-(4-(5-hydroxy-6-methylpyrimidine-4-carbonyl)piperazin-1-yl)-7-oxo-[1,2,4]triazolo[1,5-a]pyrimidin-4(7H)-yl)acetamide] | 7.00 to 9.00 | – | 7.00 to 9.00 | – | – | – | – | – | – | – | – | 999 | 200 |
| CCc1c(N2CCN(C(=O)c3ncnc(C)c3O)CC2)c(=O)n2nc(C3=CCCCCC3)nc2n1CC(=O)Nc1ccc(C(F)(F)F)cc1Cl [Example 6, N-(2-chloro-4-(trifluoromethyl)phenyl)-2-(2-(cyclohept-1-en-1-yl)-5-ethyl-6-(4-(5-hydroxy-6-methylpyrimidine-4-carbonyl)piperazin-1-yl)-7-oxo-[1,2,4]triazolo[1,5-a]pyrimidin-4(7H)-yl)acetamide] | > 9.00 | 7.00 to 9.00 | 7.00 to 9.00 | 39700 | 1.26 | 15900 | – | – | – | – | – | – | – |
| CCc1c(N2CCN(C(=O)c3ncnc(C)c3O)CC2)c(=O)n2nc(-c3ccc4c(ccn4C)c3)nc2n1CC(=O)Nc1ccc(C(F)(F)F)cc1Cl [Example 103, N-(2-chloro-4-(trifluoromethyl)phenyl)-2-(5-ethyl-6-(4-(5-hydroxy-6-methylpyrimidine-4-carbonyl)piperazin-1-yl)-2-(1-methyl-1H-indol-5-yl)-7-oxo-[1,2,4]triazolo[1,5-a]pyrimidin-4(7H)-yl)ac etamide] | 7.00 to 9.00 | 7.00 to 9.00 | 7.00 to 9.00 | 24300 | 2.75 | 7120 | – | – | – | – | – | – | – |
| CCc1c(N2CCN(C(=O)c3ncnc(C)c3O)CC2)c(=O)n2nc(-c3ccc4occc4c3)nc2n1CC(=O)Nc1ccc(S(F)(F)(F)(F)F)cc1 [Example 97, 2-(2-(benzofuran-5-yl)-5-ethyl-6-(4-(5-hydroxy-6-methylpyrimidine-4-carbonyl)piperazin-1-yl)-7-oxo-[1,2,4]triazolo[1,5-a]pyrimidin-4(7H)-yl)-N-(4-(pentafluoro-λ^6-sulfaneyl)phenyl)acetamide] | 7.00 to 9.00 | 7.00 to 9.00 | 7.00 to 9.00 | 28500 | 2.3 | 9920 | – | – | – | – | – | – | – |
| CCc1c(N2CCN(C(=O)c3ncnc(C)c3O)CC2)c(=O)n2nc(C3=CCCCOC3)nc2n1CC(=O)Nc1ccc(S(F)(F)(F)(F)F)cc1Cl [Example 84, N-(2-chloro-4-(pentafluoro-λ^6-sulfaneyl)phenyl)-2-(5-ethyl-6-(4-(5-hydroxy-6-methylpyrimidine-4-carbonyl)piperazin-1-yl)-7-oxo-2-(2,5,6,7-tetrahydrooxepin-3-yl)-[1,2,4]triazolo[1,5-a]pyrimidin-4(7H)-yl)acetamide] | 7.00 to 9.00 | 7.00 to 9.00 | 7.00 to 9.00 | – | – | – | – | – | – | – | – | – | – |
